Results as given in US20250302720A1, “PEPTIDE-BASED HAIR TREATMENT” (Sederma, priority 2020, published 2025).
Residues, ends and D or L forms follow the SMILES beside them.

How the values were obtained:
BCL-2 gene = BCL-2 gene expression in NHM (qRTPCR); assay type: cell-based, human; details: 72 hours, vs control
Experimental: NHM are cultivated and brought into contact with the peptide according to the invention or its solvent. At the end of 72 hours of contact, the melanocytes are crushed, and the mRNA are recovered, converted into cDNA which are analyzed by a qRTPCR to evaluate the changes in the level of expression of the mRNA of BCL-2.

[1] = tested on: Normal human skin melanocytes (NHM); experiment: Melanin production by NHM after 10 days; assay type: cell-based; details: vs control, n = 4
Experimental: Normal human skin melanocytes (NHM), little or moderately melanin producing are used. These cells are cultured and brought into contact for 10 days with the peptide according to the invention at different concentrations or with its solvent in equivalent concentration (control). Culture media are changed every 2-3 days. After this contact, the cell mats are crushed, and the melanin is extracted from the cells. The melanin quantity is evaluated spectrophotometrically at 490 nm, using a standard range previously established from a melanin solution. Protein assay using the Bicinchoninic Acid (BCA) method is used to estimate the cell quantity to homogenize the obtained data.

tyrosinase = experiment: Tyrosinase (dopa-oxidase) activity extracted from NHM after 10 days; assay type: cell-based, human; details: vs control, n = 4
Experimental: The same culture and contact protocol as above are used with the melanocytes of two different donors with regard to their production of melanin (moderately and poorly pigmented).
After contact, the tyrosinase was extracted from the cells and its dopa-oxidase activity is assessed using the substrate L-DOPA at 37° C. The absorbance due to the production of Dopaquinone is measured at 490 nm and converted to activity units using a preset range. A protein assay using the Bicinchoninic Acid (BCA) method is used to estimate cell quantity and thus to homogenize the obtained data.

MITF = experiment: Expression of melanogenesis genes in NHM (qRTPCR): MITF; assay type: cell-based, human; details: 72 h, vs control, n = 4
Experimental: NHM are cultivated and brought into contact with the peptide according to the invention or its solvent. At the end of 72 h of contact, the melanocytes are crushed, and the mRNAs are recovered, converted into cDNA which are analyzed by qRTPCR, to estimate the changes in the expression level of the mRNAs. The expression of the following genes has been studied: MITF, TYRP1 and CREB.

[2] = tested on: grey/white hair of volunteers; experiment: In-vivo grey/white hair density in volunteers (standardized photos, Image J image analysis); design: species or system human
Experimental: (§1) The in-vivo tests were carried out by applying the hair lotion described above in point 1) in the Galenic part. This lotion comprises 90 ppm of the peptide of the invention. Four independent studies were conducted with a total of 84 volunteers (average age of the entire panel of selected volunteers was 42 years). All four studies were conducted over a wide range of geographical locations, times, seasons, application sites, phototypes and methods. The details are specified in the below table.
All the studies used a complex photographic system, with the camera mounted on a bench to ensure perfect repositioning of the volunteer's head at all study times. For each volunteer, profile photos, and in some studies also of the back or the top of the head, were taken in cross-polarized mode to eliminate any parasitic shine so as not to interfere with the image analysis photo treatment. These photos are used to both get an overview of the grey hair intensity and, by their quality, to work on a smaller isolated area.
The evaluation of the area occupied by grey/white hair was made in the photos with the NIH-USA™ Image J software by targeting the areas of interest.
Commonly, a short hair size (2 cm for example) was requested, except for test site 2, and that this size be the same for a volunteer at different measurement times to facilitate before-after comparisons.
Also, in common, each original photo, in color, was converted to an image with grey levels, the same level filter (thresholding operation) was applied before and after to the photos of the same volunteer. Non-black hair where thus selected. At the end, a binarization operation (black/white) was carried out to separate the non-black hairs (grey and white) from the blacks and to quantify the former.

[3] = tested on: white and non-white hairs of volunteers; experiment: In-vivo non-white/white hair ratio by TrichoScan micro-photos; design: species or system human; details: lotion 90 ppm, 18 volunteers, temples, T 4 m
Experimental: as §1
Only one study (at site 2) used this technology (a new tool for analyzing hair growth) which has the advantage of providing data on a very small area and seeing the hair individually. The scalp area is identified and shaved a few days before the photo, and this at different times. Widely used for the study of hair loss, with this technology, thanks to its high magnification, it is also possible to work on hair coloring. The TrichoScan® system includes an epiluminescence microcamera system.
2.4—Evaluation of the Number of White Hairs and Non-White Hairs The TrichoScan® software was used to determine the number of white hairs, the number of black hairs and the calculation of the black/white ratio. This ratio increases with the number of dark hairs when the treatment acts.

[4] = In-vivo tolerance: adverse effects reported by the volunteers; design: species or system human
Experimental: as §1

[5] = 5 ppm, poorly pigmented (§§) NHM
[6] = 10 ppm, moderately pigmented (§) NHM
[7] = 10 ppm, poorly pigmented (§§) NHM
[8] = 7 volunteers, behind the head, T 3 m
[9] = 7 volunteers, behind the head, T 6 m (3 months after the last application)
[10] = 10 volunteers, top of the head, T 4 m
[11] = 10 volunteers, top of the head, T 8 m (4 months after the last application)
[12] = lotion 90 ppm, 5 ml/d, 17 volunteers, one side (profile), T 3 m
[13] = lotion 90 ppm, 5 ml/d, 21 volunteers, behind the head, T 3 m
[14] = lotion 90 ppm, 5 ml/d, 21 volunteers, one side (profile)/temple, T 3 m
[15] = lotion 90 ppm, 5 ml/d, 25 volunteers, one side (profile), T 3 m
[16] = lotion 90 ppm, 5 ml/d, site 2, 18 volunteers, top of the head, T 4 m
[17] = lotion 90 ppm, 5 ml/d, site 2, 19 volunteers, top of the head, T3 m
[18] = lotion 90 ppm, 17 volunteers, one side (profile), T 3 m
[19] = lotion 90 ppm, 21 volunteers, behind the head, T 3 m
[20] = lotion 90 ppm, 21 volunteers, one side (profile)/temple, T 3 m
[21] = lotion 90 ppm, 25 volunteers, one side (profile), T 3 m

SMILES: CCCCCCCCCCCCCCCC(=O)N1CCC[C@H]1C(=O)N1CCC[C@H]1C(=O)O [Pal-PP-OH, palmitoyl-prolyl-proline] (HELM PEPTIDE1{[CCCCCCCCCCCCCCCC(=O)[*:2]].P.P}$$$$V2.0)
- expression of the BCL-2 gene, Variation (%) (BCL-2 gene; 10 ppm, n = 4): +62%; p < 0.01
- expression of the BCL-2 gene, Variation (%) (BCL-2 gene; 12.5 ppm, n = 4): +99%; p < 0.01
- expression of the BCL-2 gene, Variation (%) (BCL-2 gene; 12.5 ppm, n = 4, listed as peptide of the invention): +99%
- Melanin concentration, Variation (%) ([1]; 5 ppm, moderately pigmented (§) NHM): +48%; p < 0.01
- Melanin concentration, Variation (%) [1, 5]: +4%; nsd
- Melanin concentration, Variation (%) [1, 6]: +123%; p < 0.01
- Melanin concentration, Variation (%) [1, 7]: +81%; p < 0.01
- Melanin concentration, Variation (%) ([1]; 12.5 ppm, moderately pigmented (§) NHM): +223%; p < 0.01
- Melanin concentration, Variation (%) ([1]; 12.5 ppm, poorly pigmented (§§) NHM): +113%; p < 0.01
- Tyrosinase activity, Variation (%) (tyrosinase; [5]): +15%; p < 0.05
- Tyrosinase activity, Variation (%) (tyrosinase; 7 ppm, moderately pigmented (§) NHM): +14%; p < 0.01
- Tyrosinase activity, Variation (%) (tyrosinase; [6]): +27%; p < 0.01
- Tyrosinase activity, Variation (%) (tyrosinase; [7]): +74%; p < 0.01
- variation in the expression of MITF gene (MITF; 10 ppm): +39%; p < 0.01
- variation in the expression of MITF gene (MITF; 12.5 ppm): +42%; p < 0.01
- Grey hair density, Maximum [2, 8]: −70%
- Grey hair density, Repondents [2, 8]: 100%
- Grey hair density, Moyenne (%) ([2]; 7 volunteers, behind the head, T 3 m (end of 3 months of application)): 3.14%
- Grey hair density, Maximum [2, 9]: −60%
- Grey hair density, Moyenne (%) [2, 9]: 3.00%
- Grey hair density, Repondents [2, 9]: 100%
- Grey hair density, Maximum [2, 10]: −22%
- Grey hair density, Repondents [2, 10]: 100%
- Grey hair density, Moyenne (%) ([2]; 10 volunteers, top of the head, T 4 m (end of 4 months of application)): 39.36%
- Grey hair density, Variation vs. T0 ([2]; 10 volunteers, top of the head, T 4 m (end of 4 months of application), listed as peptide according to the invention): −15.04%
- Grey hair density, Maximum [2, 11]: −45%
- Grey hair density, Moyenne (%) [2, 11]: 36.04%
- Grey hair density, Repondents [2, 11]: 80%
- Grey hair density, Variation vs. T0 ([2]; 10 volunteers, top of the head, T 8 m (4 months after the last application), listed as peptide according to the invention): −22.20%
- decrease of the grey hair density on the temples, on average (3 tests) ([2]; after 3 months of application): 32.4%
- decrease of the grey hair density ([2]; after 3 months of application, back of the head, 21 volunteers): 31.9%
- decrease of the grey hair density ([2]; after 3 months of application, temples, 21 volunteers): 37.5%
- Grey hair density, Mean (%) [2, 12]: 7.50%
- Grey hair density, Variation vs. T0 [2, 12]: −21.1%
- Grey hair density, Mean (%) [2, 13]: 3.28%
- Grey hair density, Variation vs. T0 [2, 13]: −31.9%
- Grey hair density, Mean (%) [2, 14]: 4.78%
- Grey hair density, Variation vs. T0 [2, 14]: −37.5%
- Grey hair density, Mean (%) [2, 15]: 1.90%
- Grey hair density, Variation vs. T0 [2, 15]: −38.7%
- Grey hair density, Mean (%) [2, 16]: 39.78%
- Grey hair density, Variation vs. T0 [2, 16]: −10.90%
- Grey hair density, Mean (%) [2, 17]: 40.22%
- Grey hair density, Variation vs. T0 [2, 17]: −8.80%
- Grey hair density, Maximum variation [2, 18]: −67%
- Grey hair density, respondents [2, 18]: 76%
- Grey hair density, Maximum variation [2, 19]: −70%
- Grey hair density, respondents [2, 19]: 95%
- Grey hair density, Maximum variation [2, 20]: −70%
- Grey hair density, respondents [2, 20]: 100%
- Grey hair density, Maximum variation [2, 21]: −86%
- Grey hair density, respondents [2, 21]: 68%
- Grey hair density, respondents, mean of 3 studies ([2]; lotion 90 ppm, column Mean T 3 m vs. T0, one side (profile)): 81%
- Grey hair density, Variation vs. T0, Mean T 3 m vs. T0 of 3 studies ([2]; lotion 90 ppm, mean of the 3 studies (21, 25, 17 volunteers), one side (profile), T 3 m): −32.43%
- Grey hair density, Maximum ([2]; lotion 90 ppm, site 2, 18 volunteers, top of the head, T 4 m): −23%
- Grey hair density, respondents ([2]; lotion 90 ppm, site 2, 18 volunteers, top of the head, T 4 m, listed as peptide according to the invention): 84%
- Grey hair density, Maximum ([2]; lotion 90 ppm, site 2, 19 volunteers, top of the head, T3 m): −26%
- Grey hair density, respondents ([2]; lotion 90 ppm, site 2, 19 volunteers, top of the head, T3 m, listed as peptide according to the invention): 79%
- decrease in grey/white hair ([2]; top of the head, T 3 months): 8.8%
- decrease in grey/white hair ([2]; top of the head, after 4 months of use): 10.9%
- non-white/white hair Ratio, Maximum (variation) [3]: +385%
- non-white/white hair Ratio, Mean [3]: 2.56
- non-white/white hair Ratio, respondents [3]: 72%
- non-white/white hair Ratio, % Variation vs. T0 ([3]; listed as peptide according to the invention): approximately +27.4%
- non-white/white hair Ratio, % Variation vs. T0 ([3]; listed as peptide of the invention): +27.4%
- negative feedbacks ([4]; 3 months after the last application): no negative feedbacks
- adverse effects ([4]; lotion 90 ppm, at 3 or 4 months): No adverse effects were reported
